Data as given in ChEMBL document CHEMBL3875185, “Structure-anticonvulsant activity studies in the group of (E)-N-cinnamoyl aminoalkanols derivatives monosubstituted in phenyl ring with 4-Cl, 4-CH3 or 2-CH3” (Bioorg Med Chem, 2017).
Activity calls are given as the source filed them. The calls are words filed in the database; no cut-off is given here.

Experiments:
Mus musculus [1] = assay: Neurotoxicity in mouse assessed as induction of motor impairment at 100 mg/kg, ip measured at 4 hrs post dose by rotarod method; type: toxicity, organism-based; conditions: in vivo
Mus musculus [2] = assay: Neurotoxicity in mouse assessed as induction of motor impairment at 100 mg/kg, ip measured at 0.5 hrs post dose by rotarod method; type: toxicity, organism-based; conditions: in vivo
Mus musculus [3] = assay: Anticonvulsant activity in pentylenetetrazole induced seizure mouse model assessed as no observable episode of clonic convulsion of at least 5 secs at 300 mg/kg, ip measured at 0.5 hrs post dose; type: functional, organism-based
Mus musculus [4] = assay: Neurotoxicity in mouse assessed as induction of motor impairment at 30 mg/kg, ip measured at 4 hrs post dose by rotarod method; type: toxicity, organism-based; conditions: in vivo
Mus musculus [5] = assay: Neurotoxicity in mouse assessed as induction of motor impairment at 30 mg/kg, ip measured at 0.5 hrs post dose by rotarod method; type: toxicity, organism-based; conditions: in vivo
Mus musculus [6] = assay: Anticonvulsant activity in maximal electroshock induced seizure mouse model assessed as suppression in hindlimb tonic extension at 100 mg/kg, ip measured at 0.5 hrs post dose; type: functional, organism-based
Mus musculus [7] = assay: Neurotoxicity in mouse assessed as induction of motor impairment at 300 mg/kg, ip measured at 0.5 hrs post dose by rotarod method; type: toxicity, organism-based; conditions: in vivo
Mus musculus [8] = assay: Anticonvulsant activity in maximal electroshock induced seizure mouse model assessed as suppression in hindlimb tonic extension at 300 mg/kg, ip measured at 0.5 hrs post dose; type: functional, organism-based
Mus musculus [9] = assay: Anticonvulsant activity in maximal electroshock induced seizure mouse model assessed as suppression in hindlimb tonic extension at 300 mg/kg, ip measured at 4 hrs post dose; type: functional, organism-based
Mus musculus [10] = assay: Anticonvulsant activity in pentylenetetrazole induced seizure mouse model assessed as no observable episode of clonic convulsion of at least 5 secs at 100 mg/kg, ip measured at 0.5 hrs post dose; type: functional, organism-based
Rattus norvegicus [11] = assay: Neurotoxicity in Sprague-Dawley rat assessed as behavioral change at 30 mg/kg, po measured at 2 hrs post dose; type: toxicity, organism-based; conditions: in vivo
Rattus norvegicus [12] = assay: Neurotoxicity in Sprague-Dawley rat assessed as behavioral change at 30 mg/kg, po measured at 0.5 hrs post dose; type: toxicity, organism-based; conditions: in vivo
Rattus norvegicus [13] = assay: Neurotoxicity in Sprague-Dawley rat assessed as behavioral change at 30 mg/kg, po measured at 4 hrs post dose; type: toxicity, organism-based; conditions: in vivo
Rattus norvegicus [14] = assay: Neurotoxicity in Sprague-Dawley rat assessed as behavioral change at 30 mg/kg, po measured at […] post dose; type: toxicity, organism-based; conditions: in vivo
Rattus norvegicus [15] = assay: Neurotoxicity in Sprague-Dawley rat assessed as behavioral change at 30 mg/kg, po measured at 1 hr post dose; type: toxicity, organism-based; conditions: in vivo
Mus musculus [16] = assay: Neurotoxicity in mouse assessed as induction of motor impairment at 300 mg/kg, ip measured at 4 hrs post dose by rotarod method; type: toxicity, organism-based; conditions: in vivo
Mus musculus [17] = assay: Anticonvulsant activity in pentylenetetrazole induced seizure mouse model assessed as no observable episode of clonic convulsion of at least 5 secs at 300 mg/kg, ip measured at 4 hrs post dose; type: functional, organism-based
Mus musculus [18] = assay: Anticonvulsant activity in maximal electroshock induced seizure mouse model assessed as suppression in hindlimb tonic extension at 30 mg/kg, ip measured at 0.5 hrs post dose; type: functional, organism-based
Rattus norvegicus [19] = assay: Neurotoxicity in Sprague-Dawley rat assessed as behavioral change at 30 mg/kg, ip measured at 0.5 hrs post dose; type: toxicity, organism-based; conditions: in vivo
Rattus norvegicus [20] = assay: Neurotoxicity in Sprague-Dawley rat assessed as behavioral change at 30 mg/kg, ip measured at 2 hrs post dose; type: toxicity, organism-based; conditions: in vivo
Mus musculus [21] = assay: Anticonvulsant activity in 6-Hz induced seizure mouse model assessed as restoration of normal activity within 10 secs from stimulation at 100 mg/kg, ip at 32 mA measured at […] post dose; type: functional, organism-based
Rattus norvegicus [22] = assay: Anticonvulsant activity in maximal electroshock induced seizure Sprague-Dawley rat model assessed as suppression in hindlimb tonic extension at 30 mg/kg, ip measured at […] post dose; type: functional, organism-based
Rattus norvegicus [23] = assay: Neurotoxicity in Sprague-Dawley rat assessed as behavioral change at 30 mg/kg, ip measured at 4 hrs post dose; type: toxicity, organism-based; conditions: in vivo
Rattus norvegicus [24] = assay: Neurotoxicity in Sprague-Dawley rat assessed as behavioral change at 30 mg/kg, ip measured at 1 hr post dose; type: toxicity, organism-based; conditions: in vivo
Rattus norvegicus [25] = assay: Neurotoxicity in Sprague-Dawley rat assessed as behavioral change at 30 mg/kg, ip measured at […] post dose; type: toxicity, organism-based; conditions: in vivo
Mus musculus [26] = assay: Anticonvulsant activity in 6-Hz induced seizure mouse model assessed as restoration of normal activity within 10 secs from stimulation at 100 mg/kg, ip at 32 mA measured at 0.5 hrs post dose; type: functional, organism-based

## Cc1ccc(/C=C/C(=O)NC2CCCCC2O)cc1 (racemic)
Mus musculus [1]
  Activity: Non-Toxic
Mus musculus [2]
  Activity: Non-Toxic

## Cc1ccccc1/C=C/C(=O)NCC(C)O (stereo not drawn)
Mus musculus [3]
  Activity: Active
Mus musculus [1]
  Activity: Non-Toxic
Mus musculus [4]
  Activity: Non-Toxic
Mus musculus [5]
  Activity: Non-Toxic
Mus musculus [6]
  Activity: Active
Mus musculus [7]
  Activity: Toxic
Mus musculus [8]
  Activity: Active
Mus musculus [9]
  Activity: Active
Mus musculus [10]
  Activity: Active

## CC[C@@H](CO)NC(=O)/C=C/c1ccccc1C
Rattus norvegicus [11]
  Activity: Non-Toxic
Mus musculus [3]
  Activity: Active
Mus musculus [1]
  Activity: Non-Toxic
Rattus norvegicus [12]
  Activity: Non-Toxic
Rattus norvegicus [13]
  Activity: Non-Toxic
Mus musculus [2]
  Activity: Non-Toxic
Mus musculus [4]
  Activity: Non-Toxic
Mus musculus [5]
  Activity: Non-Toxic
Rattus norvegicus [14]
  Activity: Non-Toxic
Mus musculus [6]
  Activity: Active
Rattus norvegicus [15]
  Activity: Non-Toxic
Mus musculus [7]
  Activity: Toxic
Mus musculus [8]
  Activity: Active
Mus musculus [16]
  Activity: Non-Toxic

## CCC(O)CNC(=O)/C=C/c1ccc(Cl)cc1 (stereo not drawn)
Mus musculus [3]
  Activity: Active
Mus musculus [1]
  Activity: Non-Toxic
Mus musculus [4]
  Activity: Non-Toxic
Mus musculus [5]
  Activity: Non-Toxic
Mus musculus [7]
  Activity: Toxic
Mus musculus [8]
  Activity: Active
Mus musculus [17]
  Activity: Active
Mus musculus [9]
  Activity: Active
Mus musculus [10]
  Activity: Active
Mus musculus [16]
  Activity: Toxic

## CCC(O)CNC(=O)/C=C/c1ccccc1C (stereo not drawn)
Rattus norvegicus [11]
  Activity: Non-Toxic
Mus musculus [3]
  Activity: Active
Mus musculus [18]
  Activity: Active
Mus musculus [1]
  Activity: Non-Toxic
Rattus norvegicus [19]
  Activity: Non-Toxic
Rattus norvegicus [12]
  Activity: Non-Toxic
Rattus norvegicus [13]
  Activity: Non-Toxic
Rattus norvegicus [20]
  Activity: Non-Toxic
Mus musculus [4]
  Activity: Non-Toxic
Rattus norvegicus [14]
  Activity: Non-Toxic
Mus musculus [21]
  Activity: Active
Rattus norvegicus [22]
  Activity: Active
Mus musculus [6]
  Activity: Active
Rattus norvegicus [15]
  Activity: Non-Toxic
Rattus norvegicus [23]
  Activity: Non-Toxic
Rattus norvegicus [24]
  Activity: Non-Toxic
Mus musculus [7]
  Activity: Toxic
Mus musculus [8]
  Activity: Active
Rattus norvegicus [25]
  Activity: Non-Toxic
Mus musculus [26]
  Activity: Active
Mus musculus [16]
  Activity: Non-Toxic

## Cc1ccc(/C=C/C(=O)NC(C)CO)cc1 (stereo not drawn)
Rattus norvegicus [11]
  Activity: Non-Toxic
Mus musculus [3]
  Activity: Active
Mus musculus [1]
  Activity: Non-Toxic
Rattus norvegicus [12]
  Activity: Non-Toxic
Rattus norvegicus [13]
  Activity: Non-Toxic
Mus musculus [2]
  Activity: Non-Toxic
Mus musculus [4]
  Activity: Non-Toxic
Mus musculus [5]
  Activity: Non-Toxic
Rattus norvegicus [14]
  Activity: Non-Toxic
Mus musculus [6]
  Activity: Active
Rattus norvegicus [15]
  Activity: Non-Toxic
Mus musculus [7]
  Activity: Toxic
Mus musculus [8]
  Activity: Active
Mus musculus [16]
  Activity: Non-Toxic

## Cc1ccccc1/C=C/C(=O)NC(C)CO (stereo not drawn)
Rattus norvegicus [11]
  Activity: Non-Toxic
Mus musculus [3]
  Activity: Active
Mus musculus [1]
  Activity: Non-Toxic
Rattus norvegicus [12]
  Activity: Non-Toxic
Rattus norvegicus [13]
  Activity: Non-Toxic
Mus musculus [4]
  Activity: Non-Toxic
Mus musculus [5]
  Activity: Non-Toxic
Rattus norvegicus [14]
  Activity: Non-Toxic
Mus musculus [6]
  Activity: Active
Rattus norvegicus [15]
  Activity: Non-Toxic
Mus musculus [7]
  Activity: Toxic
Mus musculus [8]
  Activity: Active
Mus musculus [16]
  Activity: Non-Toxic

## Cc1ccc(/C=C/C(=O)NCC(C)O)cc1 (stereo not drawn)
Mus musculus [3]
  Activity: Active
Mus musculus [1]
  Activity: Non-Toxic
Mus musculus [2]
  Activity: Non-Toxic
Mus musculus [4]
  Activity: Non-Toxic
Mus musculus [5]
  Activity: Non-Toxic
Mus musculus [7]
  Activity: Toxic
Mus musculus [8]
  Activity: Active
Mus musculus [16]
  Activity: Non-Toxic

## CC(C)(CO)NC(=O)/C=C/c1ccc(Cl)cc1
Rattus norvegicus [11]
  Activity: Non-Toxic
Mus musculus [1]
  Activity: Non-Toxic
Rattus norvegicus [19]
  Activity: Non-Toxic
Rattus norvegicus [12]
  Activity: Non-Toxic
Rattus norvegicus [13]
  Activity: Non-Toxic
Rattus norvegicus [20]
  Activity: Non-Toxic
Mus musculus [2]
  Activity: Non-Toxic
Mus musculus [4]
  Activity: Non-Toxic
Mus musculus [5]
  Activity: Non-Toxic
Rattus norvegicus [14]
  Activity: Non-Toxic
Rattus norvegicus [15]
  Activity: Non-Toxic
Rattus norvegicus [23]
  Activity: Non-Toxic
Rattus norvegicus [24]
  Activity: Non-Toxic
Mus musculus [8]
  Activity: Active
Rattus norvegicus [25]
  Activity: Non-Toxic
Mus musculus [9]
  Activity: Active
Mus musculus [16]
  Activity: Non-Toxic
